Test results: patent publication US10525004B2, “Epithelial delivery” (BIOCOMPATIBLES UK LIMITED, priority 2008, dated 2020)

Columns and labels:
[1] = cited from earlier work
[2] = test system: intracellular P. gingivalis; experiment: Intracellular killing of P. gingivalis in H357 keratinocytes (invasion assay, colony count); format: cell-based; conditions: H357 cells infected at MOI 100; metronidazole 0.01-10 μg/ml with 2 mg/ml vesicles; FIG. 7
Procedure: The polymer was prepared as in Example 9a. The film was dissolved by adding 2 ml of sterilized PBS (pH2) until the solution was clear. The concentration of polymer was 10 mg/ml. This was then sterilized using a 0.2 μm filter. The pH of the solution was adjusted to 7.4 with sterilized 1M NaOH and the vesicles purified by gel filtration chromatography using sterilized sepharose agar 4B (Sigma, Poole, Dorset, UK). […] After that, 200 μl of the medium was collected for H357 viability test using the LDH assay. Moreover, keratinocytes in a different plate treated in an identical manner was tested for H357 viability using propidium iodide and Hoechst. […] Serial dilutions of the lysate were used to determine colony count. […] This was then sonicated for 30 minutes to improve encapsulation. The mixture was not separated by size-exchange chromatography, so the free metronidazole was in equilibrium with the encapsulated metronidazole. P. gingivalis (ATCC 33277) at MOI 100 was used to infect H357 cells for 90 min. […] Saponin was then used to release intracellular bacteria from H357 cells and the number of intracellular P. gingivalis measured by counting the colonies from serial dilutions.

H357 = conditions: LDH assay; all concentrations; FIG. 8

| Molecule | log P [1] | recovered intracellular P. gingivalis (killing of intracellular bacteria) [2] | viability of H357 (H357) |
| --- | --- | --- | --- |
| Cc1ncc([N+](=O)[O-])n1CCO [metronidazole, Metronidazole] | negative | – | – |
| gentamycin | – | not able to kill the intracellular P. gingivalis | not significantly different |
